According to ChEMBL document CHEMBL1201862, “PubChem BioAssay data set” (2004):
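Cells were grown in 96-well plates and exposed to each compound for 48 hours at five concentrations; endpoints were interpolated linearly between bracketing concentrations, or set to the highest concentration if not reached. At the GI50, growth is halved.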 Active and inactive are the calls of the source. Rule as the data show it: active = GI50 up to about 1.1 µM and inactive = higher.

Assays:
Assay in all cases: NCI-60 cell line screen, 48 h
A549 = system: A549
BT-549 = system: BT-549
HCC 2998 = system: HCC 2998
HL-60 = system: HL-60
M14 = system: M14
MDA-MB-435 = system: MDA-MB-435
MDA-N = system: MDA-N
MOLT-4 = system: MOLT-4
Malme-3M = system: Malme-3M
NCI-H23 = system: NCI-H23
NCI-H460 = system: NCI-H460
NCI-H522 = system: NCI-H522
NCI/ADR-RES = system: NCI/ADR-RES
OVCAR-4 = system: OVCAR-4
OVCAR-5 = system: OVCAR-5
SF-539 = system: SF-539
SN12C = system: SN12C
SNB-75 = system: SNB-75
T47D = system: T47D
TK-10 = system: TK-10

Measured: GI50

NC(=O)N/N=C(/CC1C(=O)Oc2ccccc21)c1ccccc1O (centres undefined)
inactive: A549 > 100 µM | BT-549 24.2 µM | HCC 2998 35 µM | HL-60 19.6 µM | M14 > 100 µM | MDA-MB-435 43.8 µM | MDA-N 45.5 µM | MOLT-4 20.2 µM | Malme-3M > 100 µM | NCI-H23 31.5 µM | NCI-H460 39.4 µM | NCI-H522 > 100 µM | NCI/ADR-RES 25.9 µM | OVCAR-4 41.7 µM | OVCAR-5 > 100 µM | SF-539 25.6 µM | SN12C 83.6 µM | SNB-75 41.3 µM | T47D 19.5 µM | TK-10 53.8 µM

COc1ccc(C(OCC2OC(n3cc(C)c(=O)[nH]c3=O)CC2n2cc(Cn3cc(Cl)c(=O)[nH]c3=O)nn2)(c2ccccc2)c2ccccc2)cc1 (centres undefined)
inactive: A549 > 100 µM | BT-549 82.6 µM | HCC 2998 > 100 µM | HL-60 3 µM | M14 > 100 µM | MDA-MB-435 7.18 µM | MDA-N 9.14 µM | MOLT-4 4.7 µM | Malme-3M > 100 µM | NCI-H23 > 100 µM | NCI-H522 > 100 µM | NCI/ADR-RES > 100 µM | OVCAR-4 > 100 µM | OVCAR-5 > 100 µM | SF-539 > 100 µM | SN12C > 100 µM | SNB-75 > 100 µM | T47D > 100 µM | TK-10 > 100 µM

S=c1nc(Nc2ccccc2)c2c3c(sc2[nH]1)CCCC3
inactive: BT-549 > 100 µM | HCC 2998 > 100 µM | HL-60 > 100 µM | MDA-MB-435 > 100 µM | MDA-N > 100 µM | MOLT-4 > 100 µM | Malme-3M > 100 µM | NCI-H23 > 100 µM | NCI-H460 > 100 µM | NCI-H522 71.4 µM | NCI/ADR-RES > 100 µM | OVCAR-4 > 100 µM | OVCAR-5 > 100 µM | SN12C 56.4 µM | SNB-75 > 100 µM | T47D > 100 µM | TK-10 > 100 µM

CCNC1=C(NC(=O)c2ccc(F)cc2)C(=O)c2ccccc2C1=O
inactive: A549 70.8 µM | BT-549 > 100 µM | HCC 2998 34.8 µM | HL-60 40.3 µM | M14 24.5 µM | MDA-MB-435 18.2 µM | MDA-N 33.6 µM | MOLT-4 30.1 µM | Malme-3M 19.2 µM | NCI-H23 34.6 µM | NCI-H460 50.1 µM | NCI-H522 21 µM | NCI/ADR-RES 27.3 µM | OVCAR-4 40.1 µM | OVCAR-5 > 100 µM | SF-539 72.1 µM | SN12C 38.7 µM | SNB-75 62.2 µM | T47D 47.1 µM | TK-10 > 100 µM

CCOC(=O)C(NC(=O)OCc1ccccc1)C(=O)O (centres undefined)
inactive: A549 > 100 µM | BT-549 > 100 µM | HCC 2998 > 100 µM | HL-60 > 100 µM | M14 > 100 µM | MDA-MB-435 > 100 µM | MDA-N > 100 µM | MOLT-4 > 100 µM | Malme-3M > 100 µM | NCI-H23 > 100 µM | NCI-H460 > 100 µM | NCI-H522 > 100 µM | NCI/ADR-RES > 100 µM | OVCAR-4 > 100 µM | OVCAR-5 > 100 µM | SF-539 > 100 µM | SN12C > 100 µM | SNB-75 > 100 µM | T47D > 100 µM | TK-10 > 100 µM

CC(C)OC(=O)NNc1c(Cl)cc(Cl)cc1Cl
inactive: A549 53 µM | BT-549 44.4 µM | HCC 2998 89.9 µM | HL-60 68.9 µM | M14 51.5 µM | MDA-MB-435 82.8 µM | MDA-N 55 µM | MOLT-4 58.7 µM | Malme-3M 20.4 µM | NCI-H23 > 100 µM | NCI-H460 63.7 µM | NCI-H522 30.1 µM | NCI/ADR-RES 67.9 µM | OVCAR-5 > 100 µM | SF-539 > 100 µM | SN12C > 100 µM | SNB-75 99.5 µM | T47D 33.7 µM | TK-10 37.7 µM

CCOC(=O)CCC(NC(=O)c1ccc(Oc2nc3ccccc3nc2C(=O)OCC)cc1)C(=O)OCC (centres undefined)
inactive: A549 > 100 µM | BT-549 > 100 µM | HCC 2998 > 100 µM | HL-60 > 100 µM | M14 > 100 µM | MDA-MB-435 > 100 µM | MDA-N > 100 µM | MOLT-4 > 100 µM | NCI-H23 > 100 µM | NCI-H460 > 100 µM | NCI-H522 > 100 µM | NCI/ADR-RES 55.1 µM | OVCAR-4 > 100 µM | OVCAR-5 > 100 µM | SF-539 > 100 µM | SN12C > 100 µM | SNB-75 21.5 µM | T47D > 100 µM | TK-10 > 100 µM

COC1CC(N)(c2ccccc2)C(O)C(C)O1 (centres undefined)
inactive: A549 > 100 µM | BT-549 > 100 µM | HCC 2998 > 100 µM | HL-60 > 100 µM | M14 > 100 µM | MDA-MB-435 > 100 µM | MDA-N > 100 µM | MOLT-4 > 100 µM | Malme-3M > 100 µM | NCI-H23 > 100 µM | NCI-H460 > 100 µM | NCI-H522 > 100 µM | NCI/ADR-RES > 100 µM | OVCAR-4 > 100 µM | OVCAR-5 > 100 µM | SF-539 > 100 µM | SN12C > 100 µM | SNB-75 > 100 µM | T47D > 100 µM

CCSCCCN(CCCSCC)CCCSCC
inactive: A549 > 100 µM | BT-549 > 100 µM | HCC 2998 > 100 µM | HL-60 80.9 µM | M14 > 100 µM | MDA-MB-435 > 100 µM | MDA-N > 100 µM | MOLT-4 > 100 µM | NCI-H23 > 100 µM | NCI-H460 > 100 µM | NCI-H522 45.8 µM | NCI/ADR-RES > 100 µM | OVCAR-4 > 100 µM | OVCAR-5 > 100 µM | SF-539 > 100 µM | SN12C > 100 µM | SNB-75 > 100 µM | T47D > 100 µM

COC(=O)C1=Nc2c(C)nn(-c3ccccc3)c2N=C(c2ccc(C)cc2)C1
inactive: A549 > 10 µM | BT-549 > 10 µM | HCC 2998 > 10 µM | HL-60 > 10 µM | M14 > 10 µM | MDA-MB-435 > 10 µM | MDA-N > 10 µM | MOLT-4 > 10 µM | Malme-3M > 10 µM | NCI-H23 > 10 µM | NCI-H522 > 10 µM | NCI/ADR-RES > 10 µM | OVCAR-4 > 10 µM | SF-539 > 10 µM | SN12C > 10 µM | SNB-75 > 10 µM | T47D > 10 µM | TK-10 > 10 µM
